Laboratory results reported in ChEMBL document CHEMBL3301361, “Experimental in vitro DMPK and physicochemical data on a set of publicly disclosed compounds”.

Test: physchem
Conditions: octan-1-ol/water, pH 7.4, LogD7.4

Row | logD | Structure (SMILES)
1 | 0.7 | N=C(N)Nc1ccc(C(=O)Oc2ccc(Cl)cc2)cc1
2 | 0.89 | O=c1[nH][nH]c(=O)c2c(O)c3c(Cl)cc(Cl)cc3nc12
3 | 1.09 | O=C([C@@H](O)CO)N1CC=C(c2ccc(N3C[C@H](COc4ccon4)OC3=O)cc2F)CC1
4 | 0.87 | Cn1sc(NC(=O)c2cccc(Cl)c2)nc1=O
5 | 1.2 | Cn1c(-c2ccc(O)nc2)nc2ccccc21
6 | 1.13 | CCn1c(=O)c2c(=O)cc(O)oc2c2ccccc21
7 | 1.06 | Nc1n[nH]c(Nc2ccccc2)n1
8 | 0.8 | CCCCN1Cc2c(nc3cc(-c4ccco4)nn3c2O)C1=O
9 | 0.91 | FC(F)(F)c1nnc2ccc(-n3ccnc3)nn12
10 | 1.07 | Cc1nc(CS(=O)(=O)c2ccccc2)cc(N2CCOCC2)n1
11 | 1.18 | CCNCc1cncc(-c2ccc(F)cc2OC)n1
12 | 0.9 | Cc1noc(C)c1CCC1CCN(S(=O)(=O)CC2(N(O)C=O)CCOCC2)CC1
13 | 1.07 | CC(C)(CS(=O)(=O)N1CCN(c2ccc(F)cc2)CC1)N(O)C=O
14 | 0.92 | Cc1c(Sc2ccc(Cl)cc2)c2c(Cl)nccc2n1CC(=O)O
15 | 0.73 | c1ccc(CNCCNCc2ccccc2)cc1
16 | 0.77 | CN[C@@H](C)C(=O)N[C@H](C(=O)N[C@H]1CCCN(CCc2ccc(O)cc2)C1)C(C)(C)C
17 | 1 | O=c1cc(N2CCOCC2)oc2cc(O)ccc12
18 | 0.9 | Cc1nc2ccc(NC(=O)CCNC(N)=O)cc2s1

Row | logD | Structure (SMILES)
19 | 0.7 | N#Cc1cccc(-c2cccc(-c3nn[nH]n3)c2)c1
20 | 1.21 | CS(=O)(=O)c1ccccc1C(=O)NCC(O)CNC1CCN(Cc2ccc(Cl)c(Cl)c2)CC1 (stereo unspecified)
21 | 1.11 | O=c1c2ccc(Cl)cc2[nH]c2c(O)nn(Cc3ccsc3)c(=O)c12
22 | 1.15 | Cc1ccsc1Cn1[nH]c(=O)c2[nH]c3cc(Cl)ccc3c(=O)c2c1=O
23 | 0.74 | COc1cc(/C=C2/SC(=O)NC2=O)cc(OC)c1O
24 | 1.18 | CCOc1ccccc1-c1ccc(-c2nc3ccc(F)cc3c(C(=O)O)c2C)cc1
25 | 0.95 | CCNCc1cnc(-c2ccc(C(=O)Nc3ccccc3N)cc2)s1
26 | 1.13 | Cn1sc(NC(=O)c2ccccc2)nc1=O
27 | 0.69 | CCOC(=O)c1cc(O)c(-c2ccccc2)nn1
28 | 0.84 | CC(C)C(NC(=O)Cn1c(-c2ccccc2)ccc(NC(=O)OCc2ccc(C(=O)O)cc2)c1=O)C(=O)C(F)(F)F (stereo unspecified)
29 | 1.14 | O=S(=O)(Nc1nccs1)c1cc(Cl)ccc1Cl
30 | 1.02 | O=c1ccc(=O)c2ccccc2[nH]1
31 | 0.7 | CC(=O)NC[C@H]1CN(c2ccc(-n3ccnc3)c(F)c2)C(=O)O1
32 | 0.89 | c1cnc2cccnc2c1
33 | 1.2 | NC(=O)Nc1sc(-c2ccc(OCCN3CCCCC3)cc2)cc1C(N)=O
34 | 0.9 | O=C(c1cc(Cc2n[nH]c(=O)c3ccccc23)ccc1F)N1CCN(C(=O)C2CCCO2)CC1 (stereo unspecified)
35 | 0.7 | Cc1cc2nc(NC(=N)N)nc(C)c2cc1C
36 | 0.9 | CN(C)c1cccc2c(S(=O)(=O)Nc3cnccn3)cccc12

The next lines start with the compound.

Row | Structure (SMILES) | logD
37 | CC(C)C(NC(=O)Cn1c(-c2ccccc2)ccc(NS(N)(=O)=O)c1=O)C(=O)C(F)(F)F (stereo unspecified) | 1.17
38 | CC(C)C(NC(=O)Cn1c(-c2ccccc2)ccc(NC(=O)NCc2cc[n+]([O-])cc2)c1=O)C(=O)C(F)(F)F (stereo unspecified) | 1.13
39 | O=c1[nH]n(C(c2ccccn2)C2CC2)c(=O)c2c(O)c3ccc(Cl)cc3nc12 (stereo unspecified) | 1
40 | O=c1[nH]n(C(c2ccccc2)c2ccncc2)c(=O)c2c(O)c3ccc(Cl)cc3nc12 (stereo unspecified) | 1.1
41 | Nc1ccc(S(=O)(=O)N2CCCC2)cc1 | 0.98
42 | Nc1n[nH]c2ccccc12 | 1
43 | O=Cc1ccccc1B(O)O | 0.83
44 | NC(=O)c1cccnc1Oc1ccccc1 | 1.13
45 | O=S(=O)(Nc1cccnc1)c1ccccc1 | 0.84
46 | Cc1cccc(C(N)=O)c1NC(=O)c1ccccc1 | 1.09
47 | Cc1nc2c(C#N)cnn2c(O)c1Cc1ccccc1 | 0.68
48 | O=S(=O)(Nc1nnc(-c2ccccc2)s1)c1ccc(Cl)cc1 | 1.14
49 | CCOC(=O)c1cc2ccc(O)cc2oc1=O | 1.2
50 | CC(=O)Nc1ccccc1C | 1
51 | Nc1[nH]ncc1S(=O)(=O)c1ccccc1 | 1.1
52 | COc1ccc(Nc2ccccc2C(=O)O)cc1 | 1.2
53 | Cc1nnsc1C(=O)Nc1ccccc1 | 0.97
54 | Cc1cc(CN2Cc3cccnc3CC2C(=O)Nc2ccc(Cl)cc2Cl)ccc1OCC(=O)O (stereo unspecified) | 1.15
55 | C#Cc1cccc(Nc2nc3cc(C(=O)O)ccc3c3cncnc23)c1 | 0.92
56 | CN(C)C(=O)N1CCC(C(=O)NCc2cccs2)CC1 | 1.1
57 | O=c1[nH]c2c(O)ccc([C@@H](O)CNCCOCCCNCCc3cccc(Cl)c3)c2s1 | 0.83
58 | C[C@H]1O[C@@H](n2cnc3c(N)nc(Oc4ccccc4)nc32)[C@H](O)[C@@H]1O | 1.05
59 | CC(C)Oc1cc(OCCc2cccnc2)cc(C(=O)Nc2ccc(C(=O)O)cn2)c1 | 0.81
60 | O=c1[nH]c2c(O)ccc([C@@H](O)CNCCc3ccc(CNCCc4ccccc4)cc3)c2s1 | 1.11
61 | O=c1[nH]c2c(O)ccc([C@@H](O)CNCCc3cccc(CNCc4ccccc4F)c3)c2s1 | 0.69

Row | Structure (SMILES) | logD
62 | Nc1ncnc2sccc12 | 1.19
63 | NC(=O)c1cc2ccccc2nc1N | 1.07
64 | NC(=O)Nc1cc(-c2ccccc2)sc1C(=O)N[C@H]1CCCNC1 | 1.04
65 | Nc1nc(-c2ccc(O)cc2)cc(=O)[nH]1 | 1.05
66 | CC(NC(=O)C1(N)CCN(c2ncnc3[nH]ccc23)CC1)c1ccc(S(C)(=O)=O)cc1 (stereo unspecified) | 1
67 | O=C(COc1ccccc1)N1CCOCC1 | 0.75
68 | O=C(O)COc1ccc(Cl)cc1C1CCCCC1 | 0.93
69 | COc1cc2c(Nc3ccc(Cl)cc3F)ncnc2cc1OCC1CCNCC1 | 1.1
70 | NCC(O)(c1ccccc1)c1ccccc1 | 0.9
71 | CC(C)C(NC(=O)Cn1c(-c2ccccc2)ccc(NC(=O)Cc2ccccc2C(=O)O)c1=O)C(=O)C(F)(F)F (stereo unspecified) | 1.14
72 | CC(C)C(NC(=O)Cn1c(-c2cccc(C(=O)O)c2)ccc(NC(=O)OCc2ccccc2)c1=O)C(=O)C(F)(F)F (stereo unspecified) | 1.2
73 | CN(CCCc1ccccc1)S(=O)(=O)c1cc(C(=O)N2CCc3ccc(S(=O)(=O)NCCc4ccccc4)cc3C2)c(O)c(O)c1O | 0.75
74 | CC(C)C[C@H](N)c1nnc(S(=O)(=O)Cc2ccc(F)cc2)o1 | 1.11
75 | COc1cc(C(=O)NS(=O)(=O)c2ccccc2)ccc1Cn1cnc2ccc(NC(=O)CC3CCCC3)cc21 | 0.9
76 | CC(C)C(NC(=O)Cn1c(-c2ccc(F)cc2)ncc(N)c1=O)C(=O)C(F)(F)F (stereo unspecified) | 1.05
77 | c1ccc(C2OC3(CCNCC3)c3ccccc32)cc1 (stereo unspecified) | 0.75
78 | CSc1nc(C(N)=O)c(N)s1 | 1.21
79 | COC(=O)COc1ccc(O)cc1 | 0.92
80 | COc1cc2c(Nc3ccc(F)c(Cl)c3)c(C(N)=O)cnc2cc1OCCCN1CCN(C)CC1 | 1.2
81 | CNC(=O)c1ccc(-c2cc(C(=O)N[C@H]3CCCNC3)c(NC(N)=O)s2)cc1 | 0.7
82 | COc1ccccc1-c1nnc(N)[nH]1 | 0.91
83 | Cc1ccc(-c2ccc(S(=O)(=O)N3CCC[C@H]3C(=O)N3CC[C@@H](N)C3)cc2F)o1 | 1.2
84 | CS(=O)(=O)c1ccc(-c2cc(C(=O)N[C@H]3CCCNC3)c(NC(N)=O)s2)cc1 | 0.68
85 | COc1ccc2nc3ccccc3c(N)c2c1 | 1
86 | COC1/C=C/OC2(C)Oc3c(C)c(O)c4c(c3C2=O)C(=O)C=C(NC(=O)/C(C)=C\C=C\C(C)C(O)C(C)C(O)C(C)C(OC(C)=O)C1C)C4=O (stereo unspecified) | 0.7
